Measurements: PMC8568133, “Evaluation of bisphenylthiazoles as a promising class for combating multidrug-resistant fungal infections” (PLoS ONE, 2021)
In brackets after ≈: the same amount, converted by molar mass. Read-outs that look alike come from different tables or passages of the source.

Tests used:
[1] = system: Candida parapsilosis; assay: Antifungal broth microdilution MIC (50% growth inhibition); assay type: cell-based; conditions: Lodderomyces parapsilosis, read-out: MIC
Method: (§1) Serial dilutions (from 128 μg/mL to 0.06 μg/mL) of the tested compounds and control drugs (fluconazole, itraconazole and amphotericin) (in triplicates), were screened against clinical isolates of Candida albicans, Candida auris, Candida glabrata, Candida parapsilosis, Candida tropicalis, Candida krusei, Cryptococcus neoformans, Cryptococcus gattii and Aspergillus fumigatus species using the broth microdilution method according to the Clinical and Laboratory Standards Institute guidelines. MICs were determined as the lowest concentration of the compounds that inhibited the fungal growth by 50% after incubation at 35 °C for 24 h (for Candida and Aspergillus), or 48 h (for Cryptococcus). The minimum fungicidal concentration (MFC) of these compounds was tested by plating 4 μL from wells with no growth onto YPD agar plates. The plates were incubated at 37 °C for 24 hours before recording the MFC, which was categorized as the lowest concentration that reduced fungal growth by 99.9% [45]. The experiment was repeated three independent times.

[2] = system: Candida strains; assay: Minimum fungicidal concentration, summary over Candida strains; assay type: cell-based; conditions: strains of Table 6
Method: as §1

[3] = system: Candida albicans; assay: Antifungal broth microdilution MIC (50% growth inhibition) and MFC; assay type: cell-based; conditions: Candida albicans; for MIC: read-out: MIC
Method: as §1

[4] = system: Candida krusei; assay: as above; assay type: cell-based; conditions: Pichia kudriavzevii; for MIC: read-out: MIC
Method: as §1

[5] = system: Candida tropicalis; assay: as above; assay type: cell-based; conditions: Candida tropicalis, ATCC1369, C. tropicalis ATCC 1369
Method: as §1

[6] = system: Candida auris; assay: as above; assay type: cell-based; conditions: for MIC: read-out: MIC
Method: as §1

[7] = system: Cryptococcus gattii; assay: Antifungal broth microdilution MIC (50% growth inhibition, 48 h); assay type: cell-based; conditions: Cryptococcus gattii, read-out: MIC
Method: as §1

[8] = system: Cryptococcus neoformans; assay: as above; assay type: cell-based; conditions: Cryptococcus neoformans, read-out: MIC
Method: as §1

[9] = system: Lactobacillus gasseri HM-400; assay: Broth microdilution MIC against normal human microbiota; assay type: cell-based; conditions: HM400; Lactobacillus gasseri HM-400; read-out: MIC
Method: (§2) Broth microdilution was utilized to determine the activity of bisphenylthiazoles against the human gut microflora as described elsewhere. A bacterial solution equivalent to 0.5 McFarland standards was prepared and diluted in MRS broth to achieve a bacterial concentration of approximately 5 x 10^5 CFU/mL. Then, compounds/control antifungals (in triplicates), were added to the plates and serially diluted with media containing bacteria. The plates were incubated for 48 hours at 37 °C before recording the MIC values. The experiment was repeated three independent times.

[10] = system: Lactobacillus casei ATCC-334; assay: as above; assay type: cell-based; conditions: Lacticaseibacillus casei, ATCC334; Lactobacillus casei ATCC-334; read-out: MIC
Method: as §2

[11] = system: Lactobacillus crispatus HM-370; assay: as above; assay type: cell-based; conditions: HM370; Lactobacillus crispatus HM-370; read-out: MIC
Method: as §2

[12] = system: Candida auris; assay: Checkerboard assay of compound 17 with standard antifungals; assay type: cell-based; conditions: for Interpretation of interaction: antifungal combined with compound 17; for MIC Combined, Antifungal: antifungal in combination with compound 17; for MIC: Candidozyma auris, checkerboard, agent alone
Method: To evaluate the interactions between bisphenylthiazoles and the standard antifungal agents (fluconazole, amphotericin B, 5-fluorocytosine and caspofungin) against 2 C. auris clinical isolates, a standard checkerboard assay was utilized as described in previous studies. The fractional inhibitory concentration index (FICI) was calculated for each interaction. Interactions where the FICI was ≤0.5 were categorized as synergistic (SYN). FICI values of >0.5–1.25 were categorized as additive (ADD). FICI values of >1.25–4 were categorized as indifferent, and FICI values of > 4 were categorized as antagonistic. The experiment was repeated three independent times.

[13] = system: MRSA USA300; assay: Broth microdilution MIC, initial antibacterial screening; assay type: cell-based, S. aureus; conditions: Staphylococcus aureus; MRSA USA300; read-out: MIC
Method: (§3) The minimum inhibitory concentrations (MICs) of the tested compounds and control drugs against clinically-relevant bacterial strains were determined using the broth microdilution method, according to guidelines outlined by the Clinical and Laboratory Standards Institute (CLSI), or as described previously.
(§4) Initial screening of the bisphenylthiazoles against Gram-positive and Gram-negative bacteria. Bacterial strains, (except C. difficile that was grown anaerobically on brain heart infusion supplemented agar at 37° C for 48 hours), were grown aerobically overnight on tryptone soy agar plates at 37° C. Afterwards, a bacterial solution equivalent to 0.5 McFarland standard was prepared and diluted in cation-adjusted Mueller-Hinton broth (CAMHB) (for S. aureus, and E. coli) to achieve a bacterial concentration of about 5 × 10^5 CFU/mL. C. difficile was diluted in brain heart infusion supplemented broth, supplemented with yeast extract, hemin and vitamin K to achieve a bacterial concentration of about 5 × 10^5 CFU/mL. Compounds and control drugs were added in the first row of the 96 -well plates, and serially diluted with the corresponding media containing bacteria. Plates were then, incubated aerobi cally at 37° C for 18-20 hours (for S. aureus and E. coli). C. difficile was incubated anaerobically at 37° C for 48 hours. […]
(§5) the visual growth of bacteria.

[14] = system: E. coli BW25113 (wild-type); assay: as above; assay type: cell-based, Escherichia coli; conditions: Escherichia coli, read-out: MIC
Method: as §3, §4, §5

[15] = system: C. difficile ATCC BAA1870; assay: Broth microdilution MIC, initial antibacterial screening (anaerobic); assay type: cell-based, Clostridioides difficile; conditions: Clostridioides difficile, ATCCBAA1870, read-out: MIC
Method: as §3, §4, §5

[16] = system: E. coli JW55031 (tolC-mutant); assay: microbe, parasite or virus in culture; assay type: cell-based, Escherichia coli; conditions: Escherichia coli
Method: as §3, §4, §5

[17] = ATCC10231, C. albicans ATCC 10231
[18] = Candida auris 381 (azole-sensitive)
[19] = Candida auris 385 (azole-resistant)

## C[C@@H]1[C@H](O)[C@@H](C)/C=C/C=C/C=C/C=C/C=C/C=C/C=C/[C@H](O[C@@H]2O[C@H](C)[C@@H](O)[C@H](N)[C@@H]2O)C[C@@H]2O[C@](O)(C[C@@H](O)C[C@@H](O)[C@H](O)CC[C@@H](O)C[C@@H](O)CC(=O)O[C@H]1C)C[C@H](O)[C@H]2C(=O)O [Amphotericin B, reference compound]
[1]; ATCC22019, C. parapsilosis ATCC 22019
  MIC: 0.5 µg/mL (≈ 0.541 µM)
[1]; C. parapsilosis CAB 502638
  MIC: 0.5 µg/mL (≈ 0.541 µM)
[2]
  fungistatic or fungicidal activity: fungicidal
[3]; [17]
  MFC: 1 µg/mL (≈ 1.08 µM)
  MIC: 1 µg/mL (≈ 1.08 µM)
[3]; C. albicans NR-29448 (fluconazole-resistant)
  MIC: 1 µg/mL (≈ 1.08 µM)
[3]; C. albicans SS5314 (wild-type)
  MIC: 1 µg/mL (≈ 1.08 µM)
[3]; C. albicans NR-29448
  MFC: 2 µg/mL (≈ 2.16 µM)
[4]; ATCC34135, C. krusei ATCC 34135
  MIC: 2 µg/mL (≈ 2.16 µM)
[4]; C. krusei CAB 396420
  MFC: 2 µg/mL (≈ 2.16 µM)
  MIC: 2 µg/mL (≈ 2.16 µM)
[5]
  MFC: 2 µg/mL (≈ 2.16 µM)
[5]; read-out: MIC
  MIC: 1 µg/mL (≈ 1.08 µM)
[6]; Candida auris 390
  MFC: 2 µg/mL (≈ 2.16 µM)
[6]; Candidozyma auris, C. auris 381
  MIC: 1 µg/mL (≈ 1.08 µM)
[6]; Candidozyma auris, C. auris 382
  MIC: 1 µg/mL (≈ 1.08 µM)
[6]; Candidozyma auris, C. auris 383
  MIC: 1 µg/mL (≈ 1.08 µM)
[6]; Candidozyma auris, C. auris 384
  MIC: 1 µg/mL (≈ 1.08 µM)
[6]; Candidozyma auris, C. auris 385
  MIC: 1 µg/mL (≈ 1.08 µM)
[6]; Candidozyma auris, C. auris 386
  MIC: 2 µg/mL (≈ 2.16 µM)
[6]; Candidozyma auris, C. auris 387
  MIC: 1 µg/mL (≈ 1.08 µM)
[6]; Candidozyma auris, C. auris 388
  MIC: 2 µg/mL (≈ 2.16 µM)
[6]; Candidozyma auris, C. auris 389
  MIC: 2 µg/mL (≈ 2.16 µM)
[6]; Candidozyma auris, C. auris 390
  MIC: 2 µg/mL (≈ 2.16 µM)
[6]; Candidozyma auris, Candida auris 389, read-out: MFC
  MFC: 2 µg/mL (≈ 2.16 µM)
[7]; C. gattii NR 43209
  MIC: 1 µg/mL (≈ 1.08 µM)
[7]; C. gattii NR 43210
  MIC: 0.5 µg/mL (≈ 0.541 µM)
[8]; C. neoformans NR 41298
  MIC: 1 µg/mL (≈ 1.08 µM)
[8]; C. neoformans NR 41300
  MIC: 1 µg/mL (≈ 1.08 µM)
[8]; C. neoformans NR 48770
  MIC: 0.5 µg/mL (≈ 0.541 µM)
[9]
  MIC: > 128 µg/mL
[10]
  MIC: > 128 µg/mL
[11]
  MIC: > 128 µg/mL
[12]; [18]
  Interpretation of interaction: ADD (FICI values of >0.5–1.25 were categorized as additive (ADD))
  MIC Combined, Antifungal: 1 µg/mL
  MIC: 1 µg/mL
[12]; [19]
  Interpretation of interaction: ADD (FICI values of >0.5–1.25 were categorized as additive (ADD))
  MIC Combined, Antifungal: 1 µg/mL
  MIC: 1 µg/mL

## Cc1nc(-c2ccc(-c3ccccc3)cc2)sc1-c1nnc(NCCO)o1 [Compound 19, 2-{[5-(2-((1,1’-Biphenyl)-4-yl)-4-methylthiazol-5-yl)-1,3,4-oxadiazol-2-yl]amino} ethan-1-ol]
[13]
  MIC: > 64 µg/mL
[14]
  MIC: > 64 µg/mL
other
  melting point: 210 to 213 °C
[15]
  MIC: 64 µg/mL (≈ 169 µM)
[3]; C. albicans SS5314 (wild-type)
  MIC: > 64 µg/mL
[16]
  MIC: > 64 µg/mL
